These results are taken from patent US20090076152A1, “Novel Compounds Active as Muscarinic Receptor Antagonists” (priority 2007, published 2009).

A value given as a limit tells only on which side of the number the result lay.

T1 sequence (P20309 whole entry): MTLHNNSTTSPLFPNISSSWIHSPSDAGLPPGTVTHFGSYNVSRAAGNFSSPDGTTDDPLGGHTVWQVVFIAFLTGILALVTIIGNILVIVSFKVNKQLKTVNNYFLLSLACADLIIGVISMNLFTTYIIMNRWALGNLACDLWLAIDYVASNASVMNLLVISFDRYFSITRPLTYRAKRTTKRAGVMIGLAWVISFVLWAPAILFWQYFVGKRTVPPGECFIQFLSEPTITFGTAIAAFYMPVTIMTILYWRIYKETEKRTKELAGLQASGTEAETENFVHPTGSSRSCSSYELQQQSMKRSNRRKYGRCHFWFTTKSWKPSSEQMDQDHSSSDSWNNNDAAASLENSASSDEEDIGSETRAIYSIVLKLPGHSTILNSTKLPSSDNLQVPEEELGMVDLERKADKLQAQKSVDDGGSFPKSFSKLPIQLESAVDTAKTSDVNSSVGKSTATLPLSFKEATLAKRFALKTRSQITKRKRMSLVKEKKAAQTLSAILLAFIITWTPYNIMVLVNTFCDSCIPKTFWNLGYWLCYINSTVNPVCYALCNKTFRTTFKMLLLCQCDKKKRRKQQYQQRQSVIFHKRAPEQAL

The assay concerns the target T1, human muscarinic M3 receptor (Homo sapiens, UniProt P20309).
T1 construct: expressed in transfected cells
Briefly: hM3 β-Lac potency assay (NFAT-Betalactamase reporter in CHO-K1 cells). The settings on record: CHO cells recombinantly expressing human M3, NFAT β-lactamase reporter; inhibition of 80 nM carbamyl choline signal, 4 h; IC50 converted to Ki by Cheng-Prusoff; read-out: Cell based β-lactamase M3 Ki. As to the method:
M3 potency was determined in CHO-K1 cells transfected with the NFAT-Betalactamase gene. CHO (Chinese Hamster Ovary) cells recombinantly expressing the human muscarinic M3 receptor were transfected with the NFAT_β-Lac_Zeo plasmid. Cells were grown in DMEM with Glutamax-1, supplemented with 25 mM HEPES(Life Technologies 32430-027), containing 10% FCS (Foetal Calf Serum; Sigma F-7524), […] Sodium pyruvate (Sigma S-8636), NEM (non-Essential Amino Acids; Invitrogen 11140-035) and 200 μg/ml Zeocin (Invitrogen R250-01).
Cells were harvested for assay when they reached 80-90% confluency using enzyme free cell Dissociation Solution (Life technologies 13151-014) incubated with the cells for 5 min at 37° C. in an atmosphere containing 5% CO2. Detached cells were collected in warmed growth media and centrifuged at 2000 rpm for 10 min, washed in PBS (Phosphate Buffered Saline; Life Technologies 14190-094) and centrifuged again as just described. The cells were re-suspended at 2×10^5 cells/ml in growth medium (composition as described above). 20 μl of this cell suspension was added to each well of a 384 well black clear bottomed plate (Greiner Bio One 781091-PFI). The assay buffer used was PBS supplemented with 0.05% Pluronic F-127 (Sigma 9003-11-6) and 2.5% DMSO. Muscarinic M3 receptor signalling was stimulated using 80 nM carbamyl choline (Aldrich N240-9) incubated with the cells for 4 h at 37° C./5% CO2 and monitored at the end of the incubation period using a Tecan SpectraFluor+ plate reader (λ—excitation 405 nm, emission 450 nm and 503 nm). M3 receptor antagonists under test were added to the assay at the beginning of the 4 h incubation period and compound activity measured as the concentration dependent inhibition of the carbamyl choline induced signal. Inhibition curves were plotted and IC50 values generated using a 4-parameter sigmoid fit and converted to Ki values using the Cheng-Prusoff correction and the KD value for carbamyl choline in the assay.
`CC(C)N(CC[C@H](c1ccccc1)c1cc(CCOc2ccc(CCNC(=O)c3ccc(O)c(Cl)c3)cc2)ccc1O)C(C)C` [Example 1, 3-Chloro-N-[2-(4-{2-[3-((1R)-3-diisopropylamino-1-phenyl-propyl)-4-hydroxy-phenyl]-ethoxy}-phenyl)-ethyl]-4-hydroxy-benzamide]: the Ki was found to be 0.512 nM. As for `CC(C)N(CC[C@H](c1ccccc1)c1cc(CCOc2ccc(CCNC(=O)Cc3ccc(O)c(Cl)c3)cc2)ccc1O)C(C)C` [Example 2, 2-(3-Chloro-4-hydroxy-phenyl)-N-[2-(4-{2-[3-((1R)-3-diisopropylamino-1-phenyl-propyl)-4-hydroxy-phenyl]-ethoxy}-phenyl)-ethyl]-acetamide], the figure is 1.7 nM. As for `CC(C)N(CC[C@H](c1ccccc1)c1cc(CCOc2ccc(CCNC(=O)C3CCCC3)cc2)ccc1O)C(C)C` [Example 3, Cyclopentanecarboxylic acid [2-(4-{2-[3-((1R)-3-diisopropylamino-1-phenyl-propyl)-4-hydroxy-phenyl]-ethoxy}-phenyl)-ethyl]-amide], the figure is 3.59 nM; as for `CC(C)N(CC[C@H](c1ccccc1)c1cc(CCOc2ccc(CCNC(=O)CC3CC3)cc2)ccc1O)C(C)C` [Example 4], 1.19 nM. The value for `CC(C)N(CC[C@H](c1ccccc1)c1cc(CCOc2ccc(CCNC(=O)c3ccc(O)c(F)c3)cc2)ccc1O)C(C)C` [Example 5, N-[2-(4-{2-[3-((1R)-3-Diisopropylamino-1-phenyl-propyl)-4-hydroxy-phenyl]-ethoxy}-phenyl)-ethyl]-3-fluoro-4-hydroxy-benzamide] was 5.36 nM. As for `CC(C)N(CC[C@H](c1ccccc1)c1cc(CCOc2ccc(CCNC(=O)[C@]34C[C@H]5C[C@H](C[C@H](C5)C3)C4)cc2)ccc1O)C(C)C` [Example 6, (3S,5S,7S)-N-{2-[4-(2-{3-[(1R)-3-(diisopropylamino)-1-phenylpropyl]-4-hydroxyphenyl}ethoxy)phenyl]ethyl}adamantane-1-carboxamide], the Ki came out at 4.99 nM. The value for `CC(C)N(CC[C@H](c1ccccc1)c1cc(CCOc2ccc(CCNC(=O)c3ccc(O)cc3Cl)cc2)ccc1O)C(C)C` [Example 7, 2-Chloro-N-[2-(4-{2-[3-((1R)-3-diisopropylamino-1-phenyl-propyl)-4-hydroxy-phenyl]-ethoxy}-phenyl)-ethyl]-4-hydroxy-benzamide] was 0.727 nM; that for `CC(C)N(CC[C@H](c1ccccc1)c1cc(CCOc2ccc(CCN(C)C)cc2)ccc1O)C(C)C` [Example 8, 2-((1R)-3-Diisopropylamino-1-phenyl-propyl)-4-{2-[4-(2-dimethylamino-ethyl)-phenoxy]-ethyl}-phenol] was 1.4 nM. The value for `CC(C)N(CC[C@H](c1ccccc1)c1cc(CCOc2ccc(CCNCc3ccccc3)cc2)ccc1O)C(C)C` [Example 9, 4-{2-[4-(2-Benzylamino-ethyl)-phenoxy]-ethyl}-2-((1R)-3-diisopropylamino-1-phenyl-propyl)-phenol] was 0.785 nM. The value for `CC(C)N(CC[C@H](c1ccccc1)c1cc(CCOc2ccc(CCNCc3cccc(Cl)c3)cc2)ccc1O)C(C)C` [Example 10, 4-(2-{4-[2-(3-Chloro-benzylamino)-ethyl]-phenoxy}-ethyl)-2-((1R)-3-diisopropylamino-1-phenyl-propyl)-phenol] was 7.73 nM. As to `CC(C)N(CC[C@H](c1ccccc1)c1cc(CCOc2ccc(CCNC3CCCCC3)cc2)ccc1O)C(C)C` [Example 11, 4-{2-[4-(2-Cyclohexylamino-ethyl)-phenoxy]-ethyl}-2-((1R)-3-diisopropylamino-1-phenyl-propyl)-phenol], the inhibitory constant (Ki) turned out to be 6.06 nM. As for `CC(C)N(CC[C@H](c1ccccc1)c1cc(CCOc2ccc(CCNCc3ccc(O)c(Cl)c3)cc2)ccc1O)C(C)C` [Example 12, 2-chloro-4-[({2-[4-(2-{3-[(1R)-3-(diisopropylamino)-1-phenylpropyl]-4-hydroxyphenyl}ethoxy)phenyl]ethyl}amino)methyl]phenol], the figure is greater than 12.5 nM.
